Experimental data published in patent US20240165135A1, “COMPOSITIONS AND METHODS FOR THE TREATMENT OF CANCER” (The State of Israel, Ministry of Agriculture & Rural …, priority 2021, published 2024).

Tests used:
A172 GBM cells = test: XTT cell viability assay on A172; format: cell-based, Human; settings: for effect of IA, AN or B alone on A172 cell viability: 10 μM; for IC50: Homo sapiens, A 172, 48 h
Procedure: Cell cultures—Human glioblastoma A172 (ATCC®CRL-1620™) was cultured in DMEM (01-055-1A, Biological Industries, Israel) and U87MG (U87; ATCC®HTB-14™) in EMEM (01-058-1A; Biological Industries, Israel). Both media were supplemented with 10% fetal bovine serum (FBS, 04-127-1A, Biological Industries, Israel), 1% Pen-Strep, 1% L-Glutamine and 0.02% plasmocin (i.e., complete medium). Cells were incubated at 37° C. in a humidified atmosphere containing 5% CO2—95% air. Serum free media (SFM) was composed of DMEM/F12 (01-170-1A; Biological Industries, Israel), including all the supplements above except for FBS. Neurosphere media for A172 was composed of SFM with 2% B-27; Neurosphere media for U87 was serum-free EMEM without B27. For Glioblastoma stem cells (GSCs) cultures all human materials were used in accordance with the policies of the Henry Ford Hospital Institutional Review Board. Generation of GSCs from fresh GBM specimens and their characterization have been recently described. The GSCs were plated in neurosphere medium (DMEM-F12 1:1, glutamine 10 mM, HEPES buffer 10 mM and sodium bicarbonate 0.025%) supplemented with EGF and bFGF (20 ng/mL).
(§1) Cell viability assays—Cells were seeded in 96-well plates at density of 2×10^4 per well (100 μL/well) in SFM (for A172) or complete medium (for U87) and were incubated at 37° C. overnight to allow attachment. The following day, cells were treated with plant extracts (n=3), fractions, or cannabinoid standards in volume of 100 μL/well at different concentrations. Solvents used as a vehicle control and doxorubicin was used as a positive control in all the biological assays. Where indicated, CB1 or CB2 inverse agonists, TRPV1 or TRPV2 antagonists or TRPA1 blocker were added along with the indicated treatments at a concentration of 10 μM/mL in complete medium. Treated cells were incubated for 48 h at 37° C. Subsequently, XTT reagents (2,3-bis(2-methoxy-4-nitro-5-sulfophenyl)-5-[(phenylamine)-carbonyl]-2H-tetrazolium inner salt) (20-300-1000; Biological Industries, Israel) were added to the cells for 2 hours at 37° C. in a humidified 5% CO2—95% air atmosphere. Absorbance was recorded by a Synergy H1 hybrid reader photometer (BioTek) at 490 nm with 650 nm of reference wavelength. Cell viability was estimated from the equation: […]
(§2) For dose response assays, data points were connected by non-linear regression lines of the sigmoidal dose-response relation. GraphPad Prism version 6.1 (www(dot)graphpad(dot)com/scientific-software/prism/, GraphPad Software Inc., San Diego, USA) was employed to produce dose-response curves and determination of IC50 values.

[1] = test system: ovarian cancer cell line HTB75; test: XTT cell viability assay on HTB75; format: cell-based; settings: for effect of IA, AN or B alone on HTB75 cell viability: 10 μM, 48 h
Procedure: FIGS. 17A-B show cell viability of HTB75 cells (FIG. 17A) following treatment with crude extract of cannabis strains DQ, Paris, GB-11, GB-14 and GB-18. Cell viability was determined by XTT assay as a function of live cell number. NT is the vehicle treated control (1% v/v methanol). Error bars indicate ±SE (n=3). […] (FIG. 17B) following treatment with C. sativa DQ crude extract at different concentrations for IC50 value calculation from 5P logistic curve fit using GraphPad Prism version 6.1. Error bars indicate ±SE (n=3).
FIGS. 18A-C show cell viability of HTB75 cells following treatment with DQ extract fractions F1-F8, and crude extract. FIG. 18A—Cell viability was determined by XTT assay as a function of live cell number. NT is the vehicle treated control (1% v/v methanol). Error bars indicate ±SE (n=3). […] (FIGS. 18B-C) Cell viability of HTB75 cells following treatment with C. sativa DQ fractions F5 and F7 at different concentrations for IC50 values calculation from 5P logistic curve fit using GraphPad Prism version 6.1. Error bars indicate ±SE (n=3).
as §1, §2

A172 cells = test: Scratch-wound assay, A172 cell migration; format: cell-based, Human; settings: 36 hours; F4 20, F4-SM 11.5, F5 20, F5-SM 11.5, Doxo 0.5 μg/mL
Procedure: Scratch-wound assay—A172 cells were seeded in a 96-well plate at a density of 2×10^4 per well in 100 μL of complete medium. Following 24 hours, cells in each well were scratched perpendicularly across the center of the well with a 200 μL pipette tip to produce a cell-free area for investigating the ability of the cells to migrate and close the gap under different treatments. Immediately following scratching, 100 μL of treatment solution was added. Photos were taken by a CARL ZEISS inverted microscope coupled with a camera at 0, 14, 20, and 36 hours following scratching, and the gap area was measured using ImageJ (version 1.53a). The scratch area, indicated by cells migrated into the scratch was calculated as percent of scratch area at time x from time 0: […]

HTB75 cells [2] = test: Combined treatments with chemotherapy drugs on HTB75 viability, Bliss-independence model; format: cell-based; settings: combination treatments
Text: FIGS. 23A-C are graphs showing synergistic interactions between fractions of some embodiments of the invention with (FIG. 23A) cisplatin, (FIG. 23B) gemcitabine and (FIG. 23C) niraparib on cell viability of HTB75 cells following combined treatments. Synergy of cytotoxic activity calculated based on Bliss-independence drug interaction model. Synergy is apparent when the experimental (observed) value of cell survival inhibition is higher than the calculated (expected) value. Values of delta of observed minus expected values, calculated based on Bliss model are shown in the Y axis.

[3] = given orally per mouse; reference [2]; cited from earlier work
MAPK4 gene = test: Quantitative PCR of MAPK4 gene in HTB75 cell line; format: cell-based; settings: 2 h, relative to control
Procedure: FIG. 24 is a graph showing quantitative PCR-based determination of the RNA steady state level in HTB75 cell line of MAPK4 gene, after treatment with niraparib, F5, F7 or combination of niraparib+F5 or niraparib+F7, for 2 h relative to control. Gene transcript values were determined by quantitative PCR as a ratio between the target gene versus a reference gene (Hypoxanthine Phosphoribosyltransferasel; HPRT1; geneID 3251). Values were calculated relative to the average expression of target genes in treated versus control using the 2ΔΔCt method. Control (methanol) treatment served as solvent (vehicle) control; Error bars indicate ±s.e.m. (n=3).

HTB75 cells [4] = test: Apoptosis/necrosis, annexin V-FITC and PI FACS, HTB75; format: cell-based; settings: 48 h; niraparib 5.1, F5 19.1, F7 19.4, F5-SM 17.4, F7-SM 16.3 μg/mL; vehicle control 17.3%
Procedure: (§3) 10^4 cells were analyzed per treatment. Control is vehicle control (1.5% v/v methanol). The treated cells were harvested and analyzed in FACS following annexin V-FITC and PI staining. Error bars indicate ±SE (n=3).
Apoptosis assay—Apoptosis for the A172 cell line was assessed using MEBCYTO Apoptosis Kit with Annexin V-FITC and PI (MBL, Enco, 4700). Staining was carried out according to manufacturer's instructions. In brief, cells were seeded in a 6-well TC plate, at a density of 4×10^5 cells in 2 mL of SFM per well. 24 hours following seeding, cells were treated with the indicated treatments in complete medium for 48 hours. Following incubation, cells were harvested using trypsin and centrifuged for 5 minutes at 1600 rpm. Cell pellets were resuspended and washed twice with 1 mL of PBS. The cells in each sample were resuspended in 85 μL of Annexin binding buffer. Cells were stained using 10 μL of Annexin V-FITC solution and 5 μL of propidium iodide (PI) working solution followed by incubation in the dark at room temperature for 15 minutes. Then 400 μL of Annexin V binding buffer was added to each tube and flow cytometry was performed using a Gallios flow cytometer (FACS). Cells were considered apoptotic if they were Annexin V+/PI− (early apoptosis) or Annexin V+/PI+ (late apoptosis). Live cells were defined as Annexin V−/PI−, and Annexin V−/PI+ as necrosis.

HTB75 cells [5] = test: Cell cycle FACS, HTB75; format: cell-based; settings: 24 h; F5-SM 17.4 μg/mL, niraparib 4 μg/mL; control 21.4%
Procedure: as §3
Cell cycle analysis—A172 cells were seeded in 6-well TC plate at a concentration of 4×10^5 cells in 2 mL of SFM per well. Following 24 hours incubation, cells were treated with indicated treatments in complete medium for 24 hours. Methanol and doxorubicin were used as negative and positive controls, respectively. Cells were harvested and centrifuged for 5 minutes at 1600 rpm. Cell pellets were washed once with 1 mL of PBS and fixed with 70% cold ethanol overnight at −20° C. The fixed cells were washed twice with 1 mL of PBS and stained with 250 μL of PI solution (50 μg/mL) containing RNase A (100 μg/mL) for 30 minutes in dark conditions. 250 μL PBS was added to each tube and the cells were analyzed using FACS.

Cc1c(C(=O)NN2CCCCC2)nn(-c2ccc(Cl)cc2Cl)c1-c1ccc(I)cc1 [AM251]
effect of IA, AN or B alone on A172 cell viability (A172 GBM cells; 48 hours): reduced A172 cell viability to a minor, non-significant extent | effect of IA, AN or B alone on HTB75 cell viability [1]: did not affect HTB75 cell viability

CCCCCc1cc(O)c(C/C=C(\C)CCC=C(C)C)c(O)c1 [CBG, cannabigerol]
inhibition of cell migration in comparison to the vehicle control (A172 cells): 2.8% | IC50 (A172 GBM cells): 5 µg/mL

Nc1ccn([C@@H]2O[C@H](CO)[C@@H](O)C2(F)F)c(=O)n1 [Gemcitabine]
synergy of gemcitabine with F5, F7, F5-SM, F7-SM (HTB75 cells [2]): no considerable synergy

CCCCCc1cc(O)c2c(c1)OC(C)(C)[C@@H]1CCC(C)=C[C@@H]21 [THC, Tetrahydrocannabinol]
inhibition of cell migration in comparison to the vehicle control (A172 cells): 12.5% | IC50 (A172 GBM cells): 4.83 µg/mL | effectiveness of phytocannabinoid combinations on HTB75 viability ([1]; fixed total concentration 13 and 15 μg/mL, ratios as in F5 or F7): less effective than various combinations of THC, CBC, CBG and CBN

Cn1nnc2c(C(N)=O)ncn2c1=O [TMZ, temozolomide]
effect on A172 viability / cell death (A172 GBM cells; up to 50 μg/mL, 48 hours): no effect

CC(C)c1ccc(NC(=O)Cn2cnc3c2c(=O)n(C)c(=O)n3C)cc1 [TRPA1 B, HC-030031]
effect of IA, AN or B alone on A172 cell viability (A172 GBM cells; 48 hours): reduced A172 cell viability to a minor, non-significant extent | effect of IA, AN or B alone on HTB75 cell viability [1]: did not affect HTB75 cell viability

COc1cccc(NC(=O)/C=C/c2ccc(Cl)cc2)c1 [TRPV1 AN, SB-366791]
effect of IA, AN or B alone on A172 cell viability (A172 GBM cells; 48 hours): reduced A172 cell viability to a minor, non-significant extent | effect of IA, AN or B alone on HTB75 cell viability [1]: did not affect HTB75 cell viability

CO [methanol]
LD50 [3]: ~7300 mg/kg

NC(=O)c1cccc2cn(-c3ccc([C@@H]4CCCNC4)cc3)nc12 [niraparib]
MAPK4 expression (MAPK4 gene): reduced | cell apoptosis (HTB75 cells [4]): 64.1% | percentage of cells in S phase (HTB75 cells [5]): 48.3%

SR144528 [CB2 IA]
effect of IA, AN or B alone on A172 cell viability (A172 GBM cells; 48 hours): reduced A172 cell viability to a minor, non-significant extent | effect of IA, AN or B alone on HTB75 cell viability [1]: did not affect HTB75 cell viability
